The assay deals with T cells from MiHA-negative individuals. Description: Immunogenicity: T cells primed with MiHA-pulsed autologous dendritic cells, IFNγ ELISpot and intracellular cytokine staining. The class given is cell-based, human. Particulars: T cells from four MiHA-negative individuals primed with autologous dendritic cells pulsed with synthetic MiHA; re-exposed to MiHA vs no peptide or irrelevant peptide. As to the method:
Determination of the immunogenicity of the identified MiHAs. T cells and monocytes were purified from 100-150×10^6 PBMCs obtained from MiHA-negative individuals using MACS® cell separation columns (Miltenyi Biotec®) or EasySep™ kits (Stemcell Technologies®). Monocyte-derived dendritic cells were generated as previously described (3) and matured with GM-CSF, IL-4, PGE2, TNFα, IL-1β, IL-6 and IFNγ. These dendritic cells were then irradiated at 40 Gy and pulsed with 2 μg/mL of the synthetic MiHA peptide (GLRX3-1^S, WDR27-1^L, MIIP-2^E, or RASSF1-1^S) or an irrelevant peptide (Epstein-Barr virus LMP2^426-434) that was used a negative control. Pulsed or unpulsed dendritic cells were then co-cultured with previously enriched autologous T cells (5×10^5/well) in 48-well plates in advanced RPMI medium supplemented with 10% of human serum, 1% of L-Glutamine and 30 ng/mL of IL-21 at a 1:4 (stimulator:effector) ratio. Supplemented media with IL-7 and IL-15 was added after 3, 5 and 7 days of culture and cells were transferred in 12-well plates and 6-well plates at day 5 and 7, respectively. After 10 days of culture, T cells were harvested to determine antigen reactivity with ELISpot for IFNγ and polyfunctional intracellular cytokine staining. Briefly, ELISpot analysis was performed according to the manufacturer's instructions (MABtech®) and intracellular staining was performed after restimulation with 5 μg/mL of peptide in the presence of Brefeldin A for 4 hours. […] Acquisition was performed with a BD™ LSR II flow cytometer and data were analyzed using Flowlogic™ software (Inivai Technologies®).
As a proof of principle, the immunogenicity of four novel MiHAs was tested: GLRX3-1^S, MIIP-2^E, RASSF1-1^S and WDR27-1^L (FIGS. 3A-3D). […] Read-out of antigen-reactivity was assessed by ELISpot (FIG. 3A) and intracellular staining assays (FIGS. 3B-3D).
For EESAVPE/KRSW (EESAVPERSW) [MIIP-2^E], the “cytokine production by primed T cells (antigen-reactivity by ELISpot and intracellular staining)” value (shortened to “cytokine production by primed T cells”) was “produced cytokines in a MiHA-specific fashion in all tested donors”.

Turning to “FLS/PSANEHL [GLRX3-1^S, synthetic peptide tested for immunogenicity]”, the “cytokine production by primed T cells” value is on record as “produced cytokines in a MiHA-specific fashion in all tested donors”. For the substance S/AEIEQKIKEY (SEIEQKIKEY) [RASSF1-1^S], the “cytokine production by primed T cells” value was “produced cytokines in a MiHA-specific fashion in all tested donors”.

The values above are taken from patent US20190359681A1, “NOVEL MINOR HISTOCOMPATIBILITY ANTIGENS AND USES THEREOF” (UNIVERSITÉ DE MONTRÉAL, priority 2015, published 2019).
